In ChEMBL document CHEMBL4033647, “Novel coumarin- and quinolinone-based polycycles as cell division cycle 25-A and -C phosphatases inhibitors induce proliferation arrest and apoptosis in cancer cells” (Eur J Med Chem, 2017):
Active and inactive are the calls of the source. No cut-off for these calls is given here.

Tests used:
[1] = target: T1, M-phase inducer phosphatase 3 (Homo sapiens, UniProt P30307); assay: Inhibition of recombinant human full length GST-tagged CDC25C expressed in Escherichia coli BL21-DE3 pLysS using 3-O-methylfluorescein phosphate as substrate after 2 hrs by fluorimetric analysis
T1 sequence (P30307 whole entry): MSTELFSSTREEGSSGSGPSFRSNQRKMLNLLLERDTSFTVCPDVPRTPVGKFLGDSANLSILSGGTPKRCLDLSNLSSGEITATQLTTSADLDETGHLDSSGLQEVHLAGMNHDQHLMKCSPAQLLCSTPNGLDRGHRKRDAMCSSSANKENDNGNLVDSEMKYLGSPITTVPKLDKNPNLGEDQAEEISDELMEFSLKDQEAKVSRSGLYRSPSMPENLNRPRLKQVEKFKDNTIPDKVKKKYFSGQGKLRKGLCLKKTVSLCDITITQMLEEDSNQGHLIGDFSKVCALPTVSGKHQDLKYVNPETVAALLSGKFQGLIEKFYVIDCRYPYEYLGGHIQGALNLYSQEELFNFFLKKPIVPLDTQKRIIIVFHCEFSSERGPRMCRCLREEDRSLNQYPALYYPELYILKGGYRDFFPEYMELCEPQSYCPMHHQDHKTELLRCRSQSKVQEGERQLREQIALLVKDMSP

A-431 [2] = assay: Induction of apoptosis in human A431 cells assessed as caspase-3 cleavage at 10 uM after 24 hrs by Western blot analysis; format: functional, cell-based
A-431 [3] = assay: Growth inhibition of human A431 cells at 10 uM by trypan blue dye based assay; format: functional, cell-based; conditions: TDE = time-dependent effect
A-431 [4] = assay: Effect on CDC25C splice variant protein expression in human A431 cell extract at 50 uM after 24 hrs by Western blot analysis; format: functional, cell-based
A-431 [5] = assay: Cytotoxicity against human A431 cells assessed as reduction in cell viability after 24 hrs by MTT assay; format: functional, cell-based; conditions: A-431, 24 h
[6] = target: T2, M-phase inducer phosphatase 3 (Homo sapiens) (UniProt P30307); assay: Inhibition of CDC25C in human A431 cells assessed as increase in phosphorylation of CDK1 at Thr14/Tyr15 residues at 50 uM after 24 hrs by Western blot analysis; format: cell-based
T2 sequence (whole entry): T1 sequence (P30307 whole entry)

A-431 [7] = assay: Cell cycle arrest in human A431 cells assessed as accumulation at G2/M phase at 10 uM after 24 hrs by propidium iodide staining based flow cytometric analysis (reference value: 26.23%); format: functional
SK-MEL-28 = assay: Cytotoxicity against human SK-MEL-28 cells assessed as reduction in cell viability after 72 hrs by MTT assay; format: functional, cell-based; conditions: SK-MEL-28, 72 h
A-431 [8] = assay: Cell cycle arrest in human A431 cells assessed as accumulation at subG1 phase at 50 uM after 24 hrs by propidium iodide staining based flow cytometric analysis (reference value: 3.40%); format: functional
[9] = target: T3, M-phase inducer phosphatase 1 (Homo sapiens, UniProt P30304); assay: Inhibition of recombinant human full length GST-tagged CDC25A expressed in Escherichia coli BL21-DE3 pLysS using 3-O-methylfluorescein phosphate as substrate after 2 hrs by fluorimetric analysis
T3 sequence (P30304 whole entry): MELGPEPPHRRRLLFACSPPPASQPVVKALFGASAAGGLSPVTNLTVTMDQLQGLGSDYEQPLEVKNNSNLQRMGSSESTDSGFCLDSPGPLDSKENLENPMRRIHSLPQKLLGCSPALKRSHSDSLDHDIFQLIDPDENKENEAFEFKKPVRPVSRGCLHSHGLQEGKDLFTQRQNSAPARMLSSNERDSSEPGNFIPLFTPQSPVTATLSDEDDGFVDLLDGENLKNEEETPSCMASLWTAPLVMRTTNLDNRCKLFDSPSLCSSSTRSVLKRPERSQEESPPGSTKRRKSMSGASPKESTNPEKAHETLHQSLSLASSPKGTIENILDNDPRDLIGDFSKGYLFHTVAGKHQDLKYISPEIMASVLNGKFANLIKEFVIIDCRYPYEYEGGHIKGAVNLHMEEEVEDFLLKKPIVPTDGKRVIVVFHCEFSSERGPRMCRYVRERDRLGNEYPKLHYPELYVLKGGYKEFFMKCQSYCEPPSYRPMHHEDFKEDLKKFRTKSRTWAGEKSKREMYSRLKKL

A-431 [10] = assay: Cell cycle arrest in human A431 cells assessed as accumulation at subG1 phase at 10 uM after 24 hrs by propidium iodide staining based flow cytometric analysis (reference value: 3.40%); format: functional
A-431 [11] = assay: Cell cycle arrest in human A431 cells after 24 hrs by propidium iodide staining based flow cytometric analysis; format: functional
A-431 [12] = assay: Cell cycle arrest in human A431 cells assessed as accumulation at G2/M phase at 50 uM after 24 hrs by propidium iodide staining based flow cytometric analysis (reference value: 26.23%); format: functional
Hs 683 = assay: Cytotoxicity against human Hs683 cells assessed as reduction in cell viability after 72 hrs by MTT assay; format: functional, cell-based; conditions: Hs 683, 72 h
[13] = target: T2, M-phase inducer phosphatase 3 (Homo sapiens); assay: Inhibition of CDC25C in human A431 cells assessed as decrease in CDK-mediated phosphorylation of histone H3 at Ser10 residues at 50 uM after 24 hrs by Western blot analysis; format: cell-based
A-431 [14] = assay: Induction of apoptosis in human A431 cells assessed as PARP cleavage at 10 uM after 24 hrs by Western blot analysis; format: functional, cell-based
MCF7 = assay: Cytotoxicity against human MCF7 cells assessed as reduction in cell viability after 72 hrs by MTT assay; format: functional, cell-based; conditions: MCF7, 72 h
A-431 [15] = assay: Cytotoxicity against human A431 cells assessed as cell viability at 10 uM after 48 hrs by MTT assay; format: functional; conditions: A-431, 48 h, read-out: Activity
A-431 [16] = assay: Cell cycle arrest in human A431 cells assessed as accumulation at S phase at 10 uM after 24 hrs by propidium iodide staining based flow cytometric analysis (reference value: 17.33%); format: functional
[17] = Cytotoxicity against human U373n cells assessed as reduction in cell viability after 72 hrs by MTT assay; format: functional, cell-based
A549 = assay: Cytotoxicity against human A549 cells assessed as reduction in cell viability after 72 hrs by MTT assay; format: functional, cell-based; conditions: A549, 72 h
A-431 [18] = assay: Cell cycle arrest in human A431 cells assessed as accumulation at G1 phase at 10 uM after 24 hrs by propidium iodide staining based flow cytometric analysis (reference value: 53.04%); format: functional
PC-3 = assay: Cytotoxicity against human PC3 cells assessed as reduction in cell viability after 72 hrs by MTT assay; format: functional, cell-based; conditions: PC-3, 72 h
A-431 [19] = assay: Cytotoxicity against human A431 cells assessed as reduction in cell viability at 10 uM after 24 hrs by MTT assay; format: functional
A-431 [20] = assay: Decrease in CDC25C protein expression level in human A431 cell extract at 50 uM after 24 hrs by Western blot analysis; format: functional, cell-based
A-431 [21] = assay: Cell cycle arrest in human A431 cells assessed as accumulation at G1 phase at 50 uM after 24 hrs by propidium iodide staining based flow cytometric analysis (reference value: 53.04%); format: functional
[22] = Potency index, ratio of NSC95397 IC50 to compound IC50 against human U373n cells; format: functional
A-431 [23] = assay: Cell cycle arrest in human A431 cells assessed as accumulation at S phase at 50 uM after 24 hrs by propidium iodide staining based flow cytometric analysis (reference value: 17.33%); format: functional
[24] = target: T2, M-phase inducer phosphatase 3 (Homo sapiens); assay: Inhibition of CDC25C in human A431 cells assessed as increase in CDK-mediated phosphorylation of histone H3 at Ser10 residues at 10 uM after 24 hrs by Western blot analysis; format: cell-based
[25] = target: T4, M-phase inducer phosphatase 2 (Homo sapiens, UniProt P30305); assay: Inhibition of recombinant human GST-tagged truncated CDC25B expressed in bacterial expression system using 3-O-methylfluorescein phosphate as substrate after 2 hrs by fluorimetric analysis
T4 sequence (P30305 whole entry): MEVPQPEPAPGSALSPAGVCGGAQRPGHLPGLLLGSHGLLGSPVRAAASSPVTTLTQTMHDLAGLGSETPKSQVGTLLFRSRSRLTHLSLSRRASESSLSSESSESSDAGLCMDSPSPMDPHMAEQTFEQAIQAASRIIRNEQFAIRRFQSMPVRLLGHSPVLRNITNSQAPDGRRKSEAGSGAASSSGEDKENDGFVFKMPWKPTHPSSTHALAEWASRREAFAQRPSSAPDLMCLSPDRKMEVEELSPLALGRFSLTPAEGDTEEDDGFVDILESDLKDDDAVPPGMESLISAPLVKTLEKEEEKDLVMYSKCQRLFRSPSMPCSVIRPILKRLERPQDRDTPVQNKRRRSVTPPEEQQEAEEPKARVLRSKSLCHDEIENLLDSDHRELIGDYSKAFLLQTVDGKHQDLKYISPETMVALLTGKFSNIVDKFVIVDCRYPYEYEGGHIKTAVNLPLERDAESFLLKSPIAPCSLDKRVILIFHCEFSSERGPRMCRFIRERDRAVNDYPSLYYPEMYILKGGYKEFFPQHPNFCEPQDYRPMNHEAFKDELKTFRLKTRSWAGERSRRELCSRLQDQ

A-431 [26] = assay: Induction of apoptosis in human A431 cells assessed as caspase-3 cleavage at 50 uM after 24 hrs by Western blot analysis; format: functional, cell-based
[27] = target: T2, M-phase inducer phosphatase 3 (Homo sapiens); conditions: 10 to 50 uM
Description: Inhibition of CDC25C in human A431 cells assessed as increase in CDK-mediated phosphorylation of histone H3 at Ser10 residues at 10 to 50 uM after 24 hrs by Western blot analysis

## O=C1C=CC(=O)c2c1ccc1c2c(=O)[nH]c2ccc(Cl)cc21
[1]
  IC50: 5.72 µM
A-431 [2]
  Activity: Active
A-431 [3]
  growth inhibition (GI): Tde
A-431 [4]
  Activity: Active
A-431 [5]
  IC50: 3.13 µM
[6]
  inhibition: inactive
A-431 [7]
  Activity: 26.65%
SK-MEL-28
  IC50: 0.3 µM
A-431 [8]
  Activity: 33.63%
[9]
  IC50: 4.33 µM
A-431 [10]
  Activity: 15.46%
A-431 [11]
  Activity: Dose-dependent effect
A-431 [12]
  Activity: 27.78%
Hs 683
  IC50: 0.2 µM
[13]
  inhibition: inactive
A-431 [14]
  Activity: Active
MCF7
  IC50: 1.2 µM
A-431 [15]
  viability at 10 µM: 10%
A-431 [16]
  Activity: 13.39%
[17]
  IC50: 0.1 µM
A549
  IC50: 0.3 µM
A-431 [18]
  Activity: 44.5%
PC-3
  IC50: 0.3 µM
A-431 [19]
  Activity: >60%
A-431 [20]
  Activity: Active
A-431 [21]
  Activity: 31.53%
[22]
  Ratio IC50: 18.5
A-431 [23]
  Activity: 7.07%
[24]
  inhibition: Active

## O=C1C=CC(=O)c2c1ccc1c2c(=O)oc2ccccc21
[1]
  IC50: 2.3 µM
A-431 [4]
  Activity: Active
A-431 [5]
  IC50: 16 µM
[6]
  inhibition: Active
A-431 [7]
  Activity: 29.39%
SK-MEL-28
  IC50: 29 µM
A-431 [8]
  Activity: 16.51%
[9]
  IC50: 5.8 µM
A-431 [10]
  Activity: 6.85%
[25]
  IC50: 14.4 µM
A-431 [12]
  Activity: 29.72%
A-431 [26]
  Activity: Active
Hs 683
  IC50: 20 µM
[27]
  inhibition: Active
MCF7
  IC50: 16 µM
A-431 [16]
  Activity: 18.71%
[17]
  IC50: 18 µM
A549
  IC50: 26 µM
A-431 [18]
  Activity: 45.05%
PC-3
  IC50: 32 µM
A-431 [20]
  Activity: Active
A-431 [21]
  Activity: 42.38%
A-431 [23]
  Activity: 11.39%
